Assays:
Type in all cases: in vivo
bulrush [1] = assay: Test Example 2: weedkilling efficacy, growth period weed treatment in the submerged state; B: bulrush; details: treatment dosage 320 g/ha
In short: (§1)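 Barnyard grass, bulrush and oval-leafed pondweed sown in alluvial soil under 4 cm flooding, greenhouse 25 to 30° C. At 1-2 leaf stage, water-diluted emulsion applied to the water surface at stated g/ha dosages; effects scored 3 weeks later.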

birds-eye speedwell = assay: Test Example 3: weedkilling efficacy through soil treatment; p: birds-eye speedwell; details: soil treatment, treatment dosage 320 g/ha
In short: (§2)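 Crop and weed responses were judged three weeks after a uniform surface spray of the water-diluted emulsion at the given g/ha rate. Seeds sat beneath about 1.5 cm of sterilized diluvial soil, and boxes stood in a greenhouse at 25 to 30° C.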

chickweed = assay: Test Example 3: weedkilling efficacy through soil treatment; N: chickweed; details: soil treatment, treatment dosage 320 g/ha
In short: as §2

barnyard grass [2] = assay: Test Example 2: weedkilling efficacy, growth period weed treatment in the submerged state; A: barnyard grass; details: treatment dosage 320 g/ha
In short: as §1

oval-leafed pondweed [3] = assay: Test Example 1: weedkilling efficacy, preemergent weed treatment in the submerged state; C: oval-leafed pondweed; details: treatment dosage 320 g/ha
In short: (§3)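 Pots of alluvial soil flooded 4 cm deep, sown with barnyard grass, bulrush and oval-leafed pondweed and transplanted with 2.5-leaf rice. Emulsified compound applied to the water surface on sowing day at stated g/ha; greenhouse 25–30 °C, effects assessed 3 weeks after treatment.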

barnyard grass [4] = assay: Test Example 1: weedkilling efficacy, preemergent weed treatment in the submerged state; A: barnyard grass; details: treatment dosage 320 g/ha
In short: as §3

Indian mallow = assay: Test Example 3: weedkilling efficacy through soil treatment; K: Indian mallow; details: soil treatment, treatment dosage 320 g/ha
In short: as §2

directly sown rice = assay: Test Example 3: soil treatment, effect on crop; b: directly sown rice; details: soil treatment, treatment dosage 320 g/ha
In short: as §2

common wind-grass = assay: Test Example 3: weedkilling efficacy through soil treatment; J: common wind-grass; details: soil treatment, treatment dosage 320 g/ha
In short: as §2

rapeseed = assay: Test Example 3: soil treatment, effect on crop; g: rapeseed; details: soil treatment, treatment dosage 320 g/ha
In short: as §2

redroot pigweed = assay: Test Example 3: weedkilling efficacy through soil treatment; L: redroot pigweed; details: soil treatment, treatment dosage 320 g/ha
In short: as §2

fig-leafed goosefoot = assay: Test Example 3: weedkilling efficacy through soil treatment; M: fig-leafed goosefoot; details: soil treatment, treatment dosage 320 g/ha
In short: as §2

oval-leafed pondweed [5] = assay: Test Example 2: weedkilling efficacy, growth period weed treatment in the submerged state; C: oval-leafed pondweed; details: treatment dosage 320 g/ha
In short: as §1

wheat = assay: Test Example 3: soil treatment, effect on crop; e: wheat; details: soil treatment, treatment dosage 320 g/ha
In short: as §2

corn = assay: Test Example 3: soil treatment, effect on crop; c: corn; details: soil treatment, treatment dosage 320 g/ha
In short: as §2

black-grass = assay: Test Example 3: weedkilling efficacy through soil treatment; H: black-grass; details: soil treatment, treatment dosage 320 g/ha
In short: as §2

barnyard grass [6] = assay: Test Example 3: weedkilling efficacy through soil treatment; F: barnyard grass; details: soil treatment, treatment dosage 320 g/ha
In short: as §2

crabgrass = assay: Test Example 3: weedkilling efficacy through soil treatment; D: crabgrass; details: soil treatment, treatment dosage 320 g/ha
In short: as §2

Italian ryegrass = assay: Test Example 3: weedkilling efficacy through soil treatment; I: Italian ryegrass; details: soil treatment, treatment dosage 320 g/ha
In short: as §2

transplanted rice = assay: Test Example 1: preemergent weed treatment in the submerged state, effect on crop; a: transplanted rice; details: treatment dosage 320 g/ha
In short: as §3

soybean = assay: Test Example 3: soil treatment, effect on crop; d: soybean; details: soil treatment, treatment dosage 320 g/ha
In short: as §2

bulrush [7] = assay: Test Example 1: weedkilling efficacy, preemergent weed treatment in the submerged state; B: bulrush; details: treatment dosage 320 g/ha
In short: as §3

beet = assay: Test Example 3: soil treatment, effect on crop; f: beet; details: soil treatment, treatment dosage 320 g/ha
In short: as §2

catchweed = assay: Test Example 3: weedkilling efficacy through soil treatment; O: catchweed; details: soil treatment, treatment dosage 320 g/ha
In short: as §2

wild oat = assay: Test Example 3: weedkilling efficacy through soil treatment; G: wild oat; details: soil treatment, treatment dosage 320 g/ha
In short: as §2

green foxtail = assay: Test Example 3: weedkilling efficacy through soil treatment; E: green foxtail; details: soil treatment, treatment dosage 320 g/ha
In short: as §2

## CCc1cc(F)nc(NC(=O)C(C)(C)N2COCN(c3ccccc3)C2=O)c1 [A-2-21]
Bulrush [1]
  B (bulrush) weedkilling efficacy grade: 5 (weed kill ratio 90% or more, (practically complete withering))
birds-eye speedwell
  P: birds-eye speedwell, weedkilling efficacy grade: 5 (weed kill ratio 90% or more, (practically complete withering))
chickweed
  N: chickweed, weedkilling efficacy grade: 4 (weed kill ratio 70% or more, less than 90%)
Barnyard grass [2]
  A (barnyard grass) weedkilling efficacy grade: 5 (weed kill ratio 90% or more, (practically complete withering))
oval-leafed pondweed [3]
  C: oval-leafed pondweed, weed kill grade: 5 (weed kill ratio 90% or more, (practically complete withering))
Barnyard grass [4]
  A: barnyard grass, weed kill grade: 5 (weed kill ratio 90% or more, (practically complete withering))
Indian mallow
  K: Indian mallow, weedkilling efficacy grade: 2 (weed kill ratio 20% or more, less than 40%)
Directly sown rice
  b: directly sown rice, effect on crop grade: 5 (weed kill ratio 90% or more, (practically complete withering))
Common wind-grass
  J: common wind-grass, weedkilling efficacy grade: 5 (weed kill ratio 90% or more, (practically complete withering))
rapeseed
  g: rapeseed, effect on crop grade: 4 (weed kill ratio 70% or more, less than 90%)
Redroot pigweed
  L: redroot pigweed, weedkilling efficacy grade: 4 (weed kill ratio 70% or more, less than 90%)
fig-leafed goosefoot
  M: fig-leafed goosefoot, weedkilling efficacy grade: 5 (weed kill ratio 90% or more, (practically complete withering))
oval-leafed pondweed [5]
  C (oval-leafed pondweed) weedkilling efficacy grade: 5 (weed kill ratio 90% or more, (practically complete withering))
wheat
  e: wheat, effect on crop grade: 1 (weed kill ratio 5% or more, less than 20%)
corn
  c: corn, effect on crop grade: 0 (weed kill ratio 5% or less (practically no effect))
black-grass
  H: black-grass, weedkilling efficacy grade: 5 (weed kill ratio 90% or more, (practically complete withering))
Barnyard grass [6]
  F: barnyard grass, weedkilling efficacy grade: 5 (weed kill ratio 90% or more, (practically complete withering))
crabgrass
  D: crabgrass, weedkilling efficacy grade: 5 (weed kill ratio 90% or more, (practically complete withering))
Italian ryegrass
  I: Italian ryegrass, weedkilling efficacy grade: 5 (weed kill ratio 90% or more, (practically complete withering))
Transplanted rice
  a: transplanted rice, effect on crop grade: 5 (weed kill ratio 90% or more, (practically complete withering))
soybean
  d: soybean, effect on crop grade: 3 (weed kill ratio 40% or more, less than 70%)
Bulrush [7]
  B: bulrush, weed kill grade: 5 (weed kill ratio 90% or more, (practically complete withering))
beet
  f: beet, effect on crop grade: 0 (weed kill ratio 5% or less (practically no effect))
catchweed
  O: catchweed, weedkilling efficacy grade: 4 (weed kill ratio 70% or more, less than 90%)
Wild oat
  G: wild oat, weedkilling efficacy grade: 5 (weed kill ratio 90% or more, (practically complete withering))
Green foxtail
  E: green foxtail, weedkilling efficacy grade: 5 (weed kill ratio 90% or more, (practically complete withering))

From US9738634B2, “Heterocyclic amide compound and herbicide” (SYNGENTA PARTICIPATIONS AG, priority 2013, dated 2017)
